Assay results published in ChEMBL document CHEMBL1201862, “PubChem BioAssay data set” (2004).
The source made the active and inactive calls.

Assays:
[1] = molecular target: T1, Short transient receptor potential channel 4 (Mus musculus, UniProt Q9QUQ5); experiment: potentiation of DAMGO-evoked TRPC4 calcium signal – cell-based, HEK293 TRPC4/mu-opioid, Fluo-4 calcium, EC20 DAMGO, dose response (AID 434941); format: functional
T1 sequence (Q9QUQ5 whole entry): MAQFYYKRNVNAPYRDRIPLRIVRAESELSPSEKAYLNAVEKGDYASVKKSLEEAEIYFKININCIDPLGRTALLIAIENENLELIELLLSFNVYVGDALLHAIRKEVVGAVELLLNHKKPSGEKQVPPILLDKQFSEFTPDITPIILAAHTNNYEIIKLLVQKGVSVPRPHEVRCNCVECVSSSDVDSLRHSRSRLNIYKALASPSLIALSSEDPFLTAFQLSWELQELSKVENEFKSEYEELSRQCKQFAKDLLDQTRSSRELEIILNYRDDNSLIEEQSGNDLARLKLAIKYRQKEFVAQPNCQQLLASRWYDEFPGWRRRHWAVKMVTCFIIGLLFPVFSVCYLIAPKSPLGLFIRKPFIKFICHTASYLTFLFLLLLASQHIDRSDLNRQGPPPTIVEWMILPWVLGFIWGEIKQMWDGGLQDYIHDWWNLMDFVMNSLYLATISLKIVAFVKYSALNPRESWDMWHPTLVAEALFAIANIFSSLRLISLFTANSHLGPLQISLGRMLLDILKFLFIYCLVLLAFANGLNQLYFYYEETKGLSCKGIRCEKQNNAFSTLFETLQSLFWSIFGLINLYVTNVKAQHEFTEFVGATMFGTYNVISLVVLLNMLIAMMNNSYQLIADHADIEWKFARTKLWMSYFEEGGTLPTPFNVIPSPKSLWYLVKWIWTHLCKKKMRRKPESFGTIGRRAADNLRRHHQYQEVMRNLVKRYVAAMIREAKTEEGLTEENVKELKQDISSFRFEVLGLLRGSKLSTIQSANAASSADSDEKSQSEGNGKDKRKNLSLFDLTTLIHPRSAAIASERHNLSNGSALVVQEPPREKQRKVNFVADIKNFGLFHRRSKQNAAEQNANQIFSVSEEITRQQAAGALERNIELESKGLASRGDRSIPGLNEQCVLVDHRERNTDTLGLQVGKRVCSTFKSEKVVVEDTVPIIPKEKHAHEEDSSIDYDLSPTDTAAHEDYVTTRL

CAAX prenyl protease 2 = CAAX prenyl protease 2 (Saccharomyces cerevisiae S288c, UniProt Q03530); format: biochemical
[2] = molecular target: T2, DNA repair and recombination protein RAD54-like (Homo sapiens, UniProt Q92698); experiment: RAD54 Holliday junction migration blockers – biochemical, fluorescence, cherry-picked samples, dose series, confirmation (AID 651657); format: functional
T2 sequence (Q92698 whole entry): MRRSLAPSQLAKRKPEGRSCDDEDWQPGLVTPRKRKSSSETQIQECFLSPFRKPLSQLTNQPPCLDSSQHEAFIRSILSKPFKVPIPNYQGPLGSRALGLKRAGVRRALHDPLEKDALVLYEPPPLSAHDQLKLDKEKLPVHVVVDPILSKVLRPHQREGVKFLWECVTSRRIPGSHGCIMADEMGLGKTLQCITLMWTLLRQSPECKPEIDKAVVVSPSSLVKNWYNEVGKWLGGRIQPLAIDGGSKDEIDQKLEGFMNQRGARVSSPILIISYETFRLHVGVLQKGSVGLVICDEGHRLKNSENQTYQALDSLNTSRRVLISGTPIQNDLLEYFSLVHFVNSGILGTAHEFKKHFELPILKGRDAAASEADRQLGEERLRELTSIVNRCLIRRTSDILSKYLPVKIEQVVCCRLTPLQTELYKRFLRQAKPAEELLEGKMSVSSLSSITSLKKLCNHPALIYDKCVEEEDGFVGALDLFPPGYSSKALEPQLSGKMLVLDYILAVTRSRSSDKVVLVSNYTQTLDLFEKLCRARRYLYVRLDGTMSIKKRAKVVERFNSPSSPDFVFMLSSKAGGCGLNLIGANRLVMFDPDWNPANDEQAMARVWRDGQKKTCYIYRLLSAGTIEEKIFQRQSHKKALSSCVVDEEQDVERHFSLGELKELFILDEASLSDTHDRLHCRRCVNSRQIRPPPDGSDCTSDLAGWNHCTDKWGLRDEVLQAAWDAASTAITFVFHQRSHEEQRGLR

[3] = molecular target: T3, Ubiquitin-conjugating enzyme E2 N (Homo sapiens, UniProt P61088); format: functional;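 further: Dose-response confirmation in a TR-FRET assay detecting UBC13-driven polyubiquitin chain formation, inhibition measured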
T3 sequence (P61088 whole entry): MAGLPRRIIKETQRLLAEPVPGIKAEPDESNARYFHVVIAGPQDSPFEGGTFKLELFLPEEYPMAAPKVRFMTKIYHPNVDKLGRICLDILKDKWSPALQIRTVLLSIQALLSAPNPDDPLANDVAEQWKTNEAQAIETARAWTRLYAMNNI

Vero [4] = experiment: Vero cell viability after compound exposure – synthesized analogs, set II, cytotoxicity control for West Nile virus antiviral project, SAR follow-up (AID 2402); format: functional; details: Chlorocebus sabaeus
Vero [5] = experiment: antiviral protection of cells from WNV – synthesized analogs, SAR follow-up (AID 2238); format: functional, cell-based; details: Chlorocebus sabaeus
[6] = viability of uninfected HEp-2 cells – cell-based, HTS, cytotoxicity control for RSV inhibitor project, dose response (AID 2410); format: functional; details: human respiratory syncytial virus
Vero [7] = experiment: host cell viability loss, Vero E6 – synthesized analogs, cytotoxicity control for West Nile virus antiviral project, SAR follow-up (AID 2244); format: functional; details: Chlorocebus sabaeus
Vero [8] = experiment: inhibition of WNV-induced cytopathic effect – cell-based, CPE readout (AID 1621); format: functional; details: Chlorocebus sabaeus
Vero [9] = experiment: cells; format: functional; details: Chlorocebus sabaeus
[10] = molecular target: Endoplasmic reticulum aminopeptidase 1 (Homo sapiens, UniProt Q9NZ08); experiment: inhibition of human ERAP1 enzyme activity – biochemical, cherry-pick, set 2, plate reader, dose response (AID 743314)
Vero [11] = experiment: Vero 76 cell viability after compound exposure – Vero 76 cells, synthesized analogs, cytotoxicity control for West Nile virus antiviral project, SAR follow-up (AID 2414); format: functional; details: Chlorocebus sabaeus
[12] = A Cell Based Assay for the Identification of Probe candidate Compounds with Anti- Venezuelan Equine Encephalitis virus. [Related pubchem assays: 2409, 2419, 1621, 2238, 2405, 2024, 2065, 2402, 2414, 1635, 1650, 2244 ]; format: functional
Vero [13] = experiment: cells; format: functional, cell-based; details: Chlorocebus sabaeus
[14] = molecular target: Intestinal-type alkaline phosphatase (Homo sapiens, UniProt P09923); experiment: Dose Response confirmation of uHTS hits from a small molecule inhibitors of human intestinal alkaline phosphatase via a luminescent assay. [Related pubchem assays (depositor defined):AID2544, AID2574]; format: functional
[15] = HepG2 cell cytotoxicity, dose response, cytotoxicity control for non-replicating M. tuberculosis project (AID 489018); format: functional; details: Mycobacterium tuberculosis
cells = format: functional
[16] = NIH-3T3 fibroblast cytotoxicity, dose response, cytotoxicity control, cell-based, fluorescence, Alamar Blue, secondary assay (AID 2327); format: functional;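 further: NIH-3T3 mouse fibroblasts cultured with fluconazole at 8 µg/mL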
Streptococcus = experiment: GAS UMAA2166 growth inhibition – luminescence, BacTiterGlo, counter-screen for streptokinase expression inhibitor project, dose response (AID 1915); format: functional, organism-based;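 further: potency for reduction of bacterial viability or growth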
[17] = THP-1 cell cytotoxicity, dose response, cytotoxicity control for non-replicating M. tuberculosis project (AID 489025); format: functional
Streptokinase A = molecular target: T4, Streptokinase A (Streptococcus pyogenes serotype M1, UniProt P10520); experiment: viability-normalized secreted streptokinase activity reduction – plasminogen activation absorbance, OD405, dose response (AID 1914); format: functional, Streptococcus pyogenes M1 GAS;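 further: secreted streptokinase activity via plasminogen activation per viability signal from cell pellet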
T4 sequence (P10520 whole entry): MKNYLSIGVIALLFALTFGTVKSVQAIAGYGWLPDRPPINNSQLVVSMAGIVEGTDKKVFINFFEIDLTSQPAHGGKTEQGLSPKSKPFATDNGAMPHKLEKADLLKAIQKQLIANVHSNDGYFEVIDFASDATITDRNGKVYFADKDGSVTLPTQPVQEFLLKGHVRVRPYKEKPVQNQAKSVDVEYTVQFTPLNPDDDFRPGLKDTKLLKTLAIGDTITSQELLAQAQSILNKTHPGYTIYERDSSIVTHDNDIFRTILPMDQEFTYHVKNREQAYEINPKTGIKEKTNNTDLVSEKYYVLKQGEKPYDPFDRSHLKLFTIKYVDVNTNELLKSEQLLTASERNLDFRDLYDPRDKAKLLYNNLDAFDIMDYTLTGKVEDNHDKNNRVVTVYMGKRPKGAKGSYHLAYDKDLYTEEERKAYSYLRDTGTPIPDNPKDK

Beta-galactosidase = Beta-galactosidase (Escherichia coli, UniProt Q8VNN2); experiment: detection-enzyme interference by beta-gal modulators – biochemical, E. coli enzyme, set 3, artefact control for CCR6 antagonist project, dose response (AID 504712); format: functional
[18] = fluconazole-exposed Candida albicans growth modulators – fluorescence, retest, confirmation (AID 2467); format: functional, cell-based
[19] = Vero E6 cell cytotoxicity, dose response, cytotoxicity control for non-replicating M. tuberculosis project, secondary assay (AID 492998); format: functional, VeroE6; details: Vero C1008
Protein skinhead-1 = molecular target: T5, Protein skinhead-1 (Caenorhabditis elegans, UniProt P34707); format: functional
T5 sequence (P34707 whole entry): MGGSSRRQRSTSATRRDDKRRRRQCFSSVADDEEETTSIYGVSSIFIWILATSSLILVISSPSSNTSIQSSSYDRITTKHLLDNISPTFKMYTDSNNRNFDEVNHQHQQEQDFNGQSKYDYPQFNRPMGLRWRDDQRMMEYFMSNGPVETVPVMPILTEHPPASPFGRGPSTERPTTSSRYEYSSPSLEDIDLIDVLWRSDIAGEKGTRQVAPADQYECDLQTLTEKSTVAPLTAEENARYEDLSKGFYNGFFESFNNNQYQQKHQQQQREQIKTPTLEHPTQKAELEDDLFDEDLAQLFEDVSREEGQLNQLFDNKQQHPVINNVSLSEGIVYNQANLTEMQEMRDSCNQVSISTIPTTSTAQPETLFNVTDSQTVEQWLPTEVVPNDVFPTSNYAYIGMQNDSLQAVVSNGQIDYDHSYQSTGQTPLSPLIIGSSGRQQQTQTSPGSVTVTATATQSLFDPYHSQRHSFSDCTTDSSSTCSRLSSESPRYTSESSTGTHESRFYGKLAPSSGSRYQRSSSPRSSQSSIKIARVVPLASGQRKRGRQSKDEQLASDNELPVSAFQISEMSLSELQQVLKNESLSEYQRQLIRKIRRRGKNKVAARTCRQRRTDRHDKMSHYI

[20] = tested on: Streptococcus sp. 'group A'; experiment: Streptococcus pyogenes SK(-)GAS viability under kanamycin – luminescence, BacTiterGlo, confirmation, counter-screen for streptokinase expression inhibitor project, dose response (AID 1900); format: functional, organism-based
[21] = molecular target: NACHT, LRR and PYD domains-containing protein 3 (Homo sapiens, UniProt Q96P20); experiment: NALP3 inhibitors in yeast, dose response, luminescent (AID 488799); format: functional
[22] = molecular target: Voltage-dependent T-type calcium channel subunit alpha-1H (Homo sapiens, UniProt O95180); experiment: human CACNA1H calcium influx blockade – cell-based, synthetic library set 1, calcium flux (AID 493022); format: functional
[23] = molecular target: Envelope glycoprotein gp160 (Human immunodeficiency virus 1, UniProt Q6QLK5); experiment: cell-free HIV fusion peptide-binding blockers – biochemical, uHTS, fluorescence dequenching, […] (AID 1986)
[24] = molecular target: FAD-linked sulfhydryl oxidase ALR (Homo sapiens, UniProt P55789); experiment: ALR-catalysed DTT oxidation blockers – biochemical, H2O2 detection, luminescence, cherry-pick, dose response (AID 493248)
Chain of FAD-linked sulfhydryl oxidase ALR (P55789 whole entry): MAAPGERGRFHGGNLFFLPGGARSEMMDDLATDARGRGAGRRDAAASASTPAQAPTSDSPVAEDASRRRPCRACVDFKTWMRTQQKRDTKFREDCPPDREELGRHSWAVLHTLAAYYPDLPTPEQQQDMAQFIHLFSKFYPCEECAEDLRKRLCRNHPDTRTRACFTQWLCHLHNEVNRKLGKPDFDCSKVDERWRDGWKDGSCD

Chain of Voltage-dependent T-type calcium channel subunit alpha-1H (O95180 whole entry, the tested form may be a part): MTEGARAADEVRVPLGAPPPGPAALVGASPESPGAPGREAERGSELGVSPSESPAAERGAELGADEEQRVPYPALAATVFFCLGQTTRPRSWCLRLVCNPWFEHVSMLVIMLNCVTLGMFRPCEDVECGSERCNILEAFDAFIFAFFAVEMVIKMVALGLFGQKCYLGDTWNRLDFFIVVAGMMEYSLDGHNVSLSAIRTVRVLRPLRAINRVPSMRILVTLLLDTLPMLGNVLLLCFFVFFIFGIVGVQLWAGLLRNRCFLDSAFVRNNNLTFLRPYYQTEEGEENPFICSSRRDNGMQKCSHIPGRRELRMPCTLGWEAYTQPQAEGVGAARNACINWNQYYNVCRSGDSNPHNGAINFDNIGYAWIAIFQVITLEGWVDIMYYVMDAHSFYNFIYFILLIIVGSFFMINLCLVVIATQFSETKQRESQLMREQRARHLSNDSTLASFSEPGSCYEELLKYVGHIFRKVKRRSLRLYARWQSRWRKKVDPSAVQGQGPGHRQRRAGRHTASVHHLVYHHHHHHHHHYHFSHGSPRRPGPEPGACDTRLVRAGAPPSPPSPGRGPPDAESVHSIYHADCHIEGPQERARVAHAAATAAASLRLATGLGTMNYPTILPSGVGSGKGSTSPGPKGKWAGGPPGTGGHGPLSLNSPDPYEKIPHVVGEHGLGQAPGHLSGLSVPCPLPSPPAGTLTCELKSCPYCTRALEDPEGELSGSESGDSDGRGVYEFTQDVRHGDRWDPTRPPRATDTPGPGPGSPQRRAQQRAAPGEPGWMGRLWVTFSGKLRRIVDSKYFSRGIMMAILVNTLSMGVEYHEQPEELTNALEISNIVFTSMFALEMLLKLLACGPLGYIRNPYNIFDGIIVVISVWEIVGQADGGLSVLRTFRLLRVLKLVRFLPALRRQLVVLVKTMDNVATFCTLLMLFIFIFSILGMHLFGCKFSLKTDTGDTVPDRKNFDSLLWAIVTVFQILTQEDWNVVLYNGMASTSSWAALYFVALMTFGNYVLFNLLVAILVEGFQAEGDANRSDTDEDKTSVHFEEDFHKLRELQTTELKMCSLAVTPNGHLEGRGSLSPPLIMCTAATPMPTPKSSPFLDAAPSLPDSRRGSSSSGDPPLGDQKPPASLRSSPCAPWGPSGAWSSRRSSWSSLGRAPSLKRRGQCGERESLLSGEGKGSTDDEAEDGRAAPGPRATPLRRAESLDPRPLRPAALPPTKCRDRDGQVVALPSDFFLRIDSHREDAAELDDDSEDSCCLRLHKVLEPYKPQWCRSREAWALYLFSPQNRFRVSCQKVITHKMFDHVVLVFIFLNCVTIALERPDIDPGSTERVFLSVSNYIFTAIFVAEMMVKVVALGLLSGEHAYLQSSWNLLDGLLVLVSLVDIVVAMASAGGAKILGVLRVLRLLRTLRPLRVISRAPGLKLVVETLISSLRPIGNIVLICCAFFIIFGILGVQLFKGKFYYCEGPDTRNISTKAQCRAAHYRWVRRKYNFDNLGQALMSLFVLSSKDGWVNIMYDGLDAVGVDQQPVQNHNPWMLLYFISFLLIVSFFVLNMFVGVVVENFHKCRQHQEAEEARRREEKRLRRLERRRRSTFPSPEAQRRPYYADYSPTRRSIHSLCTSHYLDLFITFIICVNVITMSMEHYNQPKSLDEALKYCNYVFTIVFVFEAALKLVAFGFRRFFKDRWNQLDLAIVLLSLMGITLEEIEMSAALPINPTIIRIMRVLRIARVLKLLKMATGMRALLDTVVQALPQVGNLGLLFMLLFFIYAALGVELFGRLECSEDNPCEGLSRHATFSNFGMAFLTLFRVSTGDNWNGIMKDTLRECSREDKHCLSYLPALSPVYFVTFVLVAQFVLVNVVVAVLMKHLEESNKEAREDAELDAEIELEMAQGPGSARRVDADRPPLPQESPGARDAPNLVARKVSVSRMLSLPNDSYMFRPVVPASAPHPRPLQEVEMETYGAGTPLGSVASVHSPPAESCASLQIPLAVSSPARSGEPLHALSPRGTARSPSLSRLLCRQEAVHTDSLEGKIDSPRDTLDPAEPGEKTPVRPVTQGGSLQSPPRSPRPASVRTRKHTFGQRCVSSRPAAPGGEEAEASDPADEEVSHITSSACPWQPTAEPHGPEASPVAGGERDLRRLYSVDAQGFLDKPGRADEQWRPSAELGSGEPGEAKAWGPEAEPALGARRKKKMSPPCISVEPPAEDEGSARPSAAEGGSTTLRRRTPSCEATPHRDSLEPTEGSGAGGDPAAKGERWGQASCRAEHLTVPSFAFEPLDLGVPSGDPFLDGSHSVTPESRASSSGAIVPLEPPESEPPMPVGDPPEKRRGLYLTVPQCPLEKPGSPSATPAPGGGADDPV
Chain of NACHT, LRR and PYD domains-containing protein 3 (Q96P20 whole entry, the tested form may be a part): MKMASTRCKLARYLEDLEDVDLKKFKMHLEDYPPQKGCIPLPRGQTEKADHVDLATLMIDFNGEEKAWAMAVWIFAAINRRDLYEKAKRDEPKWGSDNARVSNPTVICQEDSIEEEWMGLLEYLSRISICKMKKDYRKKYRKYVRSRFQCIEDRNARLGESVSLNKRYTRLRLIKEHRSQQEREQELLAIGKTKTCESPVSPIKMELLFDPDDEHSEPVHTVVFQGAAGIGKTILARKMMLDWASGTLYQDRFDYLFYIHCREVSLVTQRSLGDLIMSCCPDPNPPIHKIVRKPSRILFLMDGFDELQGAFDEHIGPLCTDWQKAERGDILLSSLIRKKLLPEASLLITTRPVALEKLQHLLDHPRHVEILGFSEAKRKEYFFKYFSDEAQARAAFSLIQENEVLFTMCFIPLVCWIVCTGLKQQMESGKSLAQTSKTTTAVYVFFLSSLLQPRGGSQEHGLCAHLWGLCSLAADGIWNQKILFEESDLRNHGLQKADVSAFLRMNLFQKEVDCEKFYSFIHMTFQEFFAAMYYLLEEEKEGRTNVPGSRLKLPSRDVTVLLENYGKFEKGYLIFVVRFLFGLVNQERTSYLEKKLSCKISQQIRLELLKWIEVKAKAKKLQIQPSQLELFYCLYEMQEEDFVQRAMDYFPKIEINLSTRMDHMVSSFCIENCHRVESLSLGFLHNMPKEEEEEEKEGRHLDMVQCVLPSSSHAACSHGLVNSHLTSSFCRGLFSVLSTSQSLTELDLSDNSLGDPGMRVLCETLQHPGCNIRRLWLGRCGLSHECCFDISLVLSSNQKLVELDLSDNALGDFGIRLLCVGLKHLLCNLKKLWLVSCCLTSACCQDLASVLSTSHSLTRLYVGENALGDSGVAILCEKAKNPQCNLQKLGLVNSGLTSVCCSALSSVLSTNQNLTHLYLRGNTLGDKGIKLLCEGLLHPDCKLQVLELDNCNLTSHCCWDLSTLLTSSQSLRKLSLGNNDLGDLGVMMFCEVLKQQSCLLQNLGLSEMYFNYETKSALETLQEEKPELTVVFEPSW
Chain of Beta-galactosidase (Q8VNN2 whole entry): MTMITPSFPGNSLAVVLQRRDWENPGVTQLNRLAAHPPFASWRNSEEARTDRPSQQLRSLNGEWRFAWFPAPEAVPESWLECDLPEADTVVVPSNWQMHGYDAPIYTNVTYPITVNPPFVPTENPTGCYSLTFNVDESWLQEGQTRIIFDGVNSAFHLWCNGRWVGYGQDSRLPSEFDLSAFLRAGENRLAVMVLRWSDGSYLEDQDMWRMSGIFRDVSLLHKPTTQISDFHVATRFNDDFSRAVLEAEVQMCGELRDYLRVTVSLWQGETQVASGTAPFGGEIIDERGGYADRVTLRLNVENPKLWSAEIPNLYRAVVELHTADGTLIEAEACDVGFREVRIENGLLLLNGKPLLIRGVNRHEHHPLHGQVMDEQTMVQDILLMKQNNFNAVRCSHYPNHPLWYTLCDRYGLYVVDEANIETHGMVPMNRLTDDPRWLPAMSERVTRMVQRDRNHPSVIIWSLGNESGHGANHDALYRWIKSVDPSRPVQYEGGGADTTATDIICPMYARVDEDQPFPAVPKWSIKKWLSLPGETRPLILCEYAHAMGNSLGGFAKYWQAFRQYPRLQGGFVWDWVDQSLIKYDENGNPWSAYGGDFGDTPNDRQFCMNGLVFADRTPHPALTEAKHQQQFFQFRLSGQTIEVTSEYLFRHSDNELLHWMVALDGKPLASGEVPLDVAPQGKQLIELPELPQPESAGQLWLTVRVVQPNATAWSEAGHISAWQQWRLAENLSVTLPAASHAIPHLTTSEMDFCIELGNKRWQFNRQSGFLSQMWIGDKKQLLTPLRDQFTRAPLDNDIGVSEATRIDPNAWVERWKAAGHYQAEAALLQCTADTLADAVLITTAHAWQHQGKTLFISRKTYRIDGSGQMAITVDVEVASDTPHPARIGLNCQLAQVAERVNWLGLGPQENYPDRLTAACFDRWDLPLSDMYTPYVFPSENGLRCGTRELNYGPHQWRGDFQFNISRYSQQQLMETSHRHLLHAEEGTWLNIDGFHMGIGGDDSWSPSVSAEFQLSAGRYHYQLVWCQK
Chain of CAAX prenyl protease 2 (Q03530 whole entry): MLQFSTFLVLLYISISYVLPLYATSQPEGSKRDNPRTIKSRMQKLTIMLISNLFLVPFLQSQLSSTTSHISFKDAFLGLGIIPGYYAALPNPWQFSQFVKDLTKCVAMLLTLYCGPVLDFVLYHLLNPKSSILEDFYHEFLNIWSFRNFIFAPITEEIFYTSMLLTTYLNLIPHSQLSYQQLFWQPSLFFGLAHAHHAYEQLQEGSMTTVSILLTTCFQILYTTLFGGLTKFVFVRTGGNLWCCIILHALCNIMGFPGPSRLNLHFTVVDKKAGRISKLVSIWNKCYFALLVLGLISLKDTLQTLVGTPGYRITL

CCCCN(C)CCNC(=O)c1cc2c(-c3cccc(OC)c3)nn(C)c2s1
EC50 [1]: 0.07 µM (active) | AC50 (CAAX prenyl protease 2): 16 µM (active) | AC50 [2]: 31.5 µM (active) | IC50 [3]: > 20 µM (inactive)

CC1CCCC(C)N1CCCNC(=O)c1cc2c(s1)-c1ccccc1OC2 (stereo not given)
CC50 (Vero [4]): 11 µM (active) | IC50 (Vero [5]): > 40 µM (active) | CC50 [6]: 18.2 µM (active) | CC50 (Vero [7]): 12.4 µM (active) | IC50 (Vero [8]): 19 µM (active) | CC50 (Vero [9]): > 25 µM (active) | AC50 [10]: 12.5 µM (active) | CC50 (Vero [11]): 24.3 µM (active) | IC50 [12]: 11.8 µM (active) | IC50 (Vero [13]): > 25 µM (active)

CC(=O)N1CCOc2ccc(S(=O)(=O)N3CCCC(C)C3)cc21 (stereo not given)
IC50 [14]: > 100 µM (inactive)

CN(C)CCCNc1cc(C(C)(C)C)nc2c(-c3ccc(Cl)cc3)cnn12
CC50 [15]: 13 µM (active) | IC50 (cells): 12.4 µM (active) | EC50 [16]: 12.5 µM (active) | EC50 (Streptococcus): 8.08 µM (active) | CC50 [17]: 11.4 µM (active) | EC50 (Streptokinase A): > 150 µM (not active) | IC50 [3]: > 20 µM (inactive) | IC50 (Beta-galactosidase): > 66.6 µM (inactive) | EC50 [18]: > 38 µM (not active) | CC50 [19]: 10.8 µM (active) | IC50 (Protein skinhead-1): > 100 µM (inactive) | EC50 [20]: 1.91 µM (active)

Brc1ccc(-n2cnc(-c3ccccc3)c2)cc1
IC50 [21]: 35.4 µM (active) | IC50 (Protein skinhead-1): > 100 µM (inactive)

Cc1ccc(-c2nnc(NC(=O)COc3ccccc3F)o2)cc1C
EC50 [22]: 2.3 µM (active)

O=C(O)c1cccc2c(-c3ccccc3)c(-c3ccccc3)[nH]c12
IC50 [23]: 16.8 µM (active) | EC50 (Streptococcus): > 150 µM (not active) | EC50 (Streptokinase A): 15.6 µM (active) | AC50 [24]: 4.56 µM (active) | EC50 [20]: 6.24 µM (active)
